Measured values published in ChEMBL document CHEMBL1201862, “PubChem BioAssay data set” (2004).
Activity calls are given as the source filed them.

Assays:
[1] = test system: Streptococcus sp. 'group A'; test: Streptococcus pyogenes SK(-)GAS viability under kanamycin – luminescence, BacTiterGlo, confirmation, counter-screen for streptokinase expression inhibitor project, dose response (AID 1900); type: functional, organism-based
[2] = test system: Streptococcus; test: Luminescence Microorganism-Based Dose Response Follow up to Identify Compounds Cytotoxic to Streptococcus. [Related pubchem assays: 1677 (Project Summary), 1915, 1914, 1902 (Retest at Dose), 1900 (Counter Screen), 1662 (Primary HTS)]; type: functional, organism-based
[3] = target: T1, Streptokinase A (Streptococcus pyogenes serotype M1, UniProt P10520); test: viability-normalized secreted streptokinase activity reduction – plasminogen activation absorbance, OD405, dose response (AID 1914); type: functional, Streptococcus pyogenes M1 GAS;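 further: secreted streptokinase activity via plasminogen activation per viability signal from cell pellet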
T1 sequence (P10520 whole entry): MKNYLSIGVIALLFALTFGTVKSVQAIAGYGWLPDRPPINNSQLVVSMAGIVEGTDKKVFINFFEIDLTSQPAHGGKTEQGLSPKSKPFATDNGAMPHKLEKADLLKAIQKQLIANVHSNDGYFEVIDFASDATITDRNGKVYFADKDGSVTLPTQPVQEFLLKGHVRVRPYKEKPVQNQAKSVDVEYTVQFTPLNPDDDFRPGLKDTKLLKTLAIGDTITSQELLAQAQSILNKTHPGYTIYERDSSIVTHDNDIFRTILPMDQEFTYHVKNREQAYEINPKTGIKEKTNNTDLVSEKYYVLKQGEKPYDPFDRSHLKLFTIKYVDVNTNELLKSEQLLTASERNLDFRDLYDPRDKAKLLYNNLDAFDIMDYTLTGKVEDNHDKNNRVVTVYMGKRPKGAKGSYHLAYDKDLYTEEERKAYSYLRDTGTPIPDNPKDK

[4] = Trypanosoma cruzi growth suppression in host cells – NIH3T3 host cells, beta-gal luminescence, confirmation (AID 2044); type: functional, cell-based;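 further: intracellular parasites grown in NIH/3T3 mouse fibroblasts as host cells; luminescent beta-galactosidase reporter signal from transgenic T. cruzi replicating inside host cells; inhibitors lower the luminescence signal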
[5] = microbe, parasite or virus in culture; type: functional; conditions: Mycobacterium tuberculosis
[6] = NIH3T3 cell viability loss – ATP luminescence, mouse fibroblasts, counter-screen, dose response (AID 2010); type: functional, cell-based;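 further: cells exposed to compound for about 90 hours before reading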
[7] = test system: Streptococcus; test: GAS UMAA2166 growth inhibition – luminescence, BacTiterGlo, counter-screen for streptokinase expression inhibitor project, dose response (AID 1915); type: functional, organism-based;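 further: potency for reduction of bacterial viability or growth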
[8] = target: T2, Neuropeptide Y receptor type 1 (Homo sapiens, UniProt P25929); type: functional;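 on IC50: HEK293 cells with a CNG channel challenged with NPY then isoproterenol; potency as antagonist that reverses NPY suppression of cAMP signal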
T2 sequence (P25929 whole entry): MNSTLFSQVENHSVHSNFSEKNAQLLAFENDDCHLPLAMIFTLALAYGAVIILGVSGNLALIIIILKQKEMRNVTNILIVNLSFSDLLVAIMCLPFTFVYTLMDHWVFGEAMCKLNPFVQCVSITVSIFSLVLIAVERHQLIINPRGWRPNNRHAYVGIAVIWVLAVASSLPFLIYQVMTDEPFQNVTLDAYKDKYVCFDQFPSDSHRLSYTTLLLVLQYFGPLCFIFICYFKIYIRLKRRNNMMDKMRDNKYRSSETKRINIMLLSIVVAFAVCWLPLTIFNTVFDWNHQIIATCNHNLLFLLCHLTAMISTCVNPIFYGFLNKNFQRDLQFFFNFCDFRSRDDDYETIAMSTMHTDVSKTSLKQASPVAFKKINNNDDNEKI

[9] = target: T3, Neuropeptide Y receptor type 2 (Homo sapiens, UniProt P49146); type: functional, cell-based;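 on IC50: HEK293 cells expressing the receptor and a CNG channel; stimulus was NPY near EC95 followed by isoproterenol to raise cAMP; antagonist potency measured as restoring cAMP signal that NPY suppresses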
T3 sequence (P49146 whole entry): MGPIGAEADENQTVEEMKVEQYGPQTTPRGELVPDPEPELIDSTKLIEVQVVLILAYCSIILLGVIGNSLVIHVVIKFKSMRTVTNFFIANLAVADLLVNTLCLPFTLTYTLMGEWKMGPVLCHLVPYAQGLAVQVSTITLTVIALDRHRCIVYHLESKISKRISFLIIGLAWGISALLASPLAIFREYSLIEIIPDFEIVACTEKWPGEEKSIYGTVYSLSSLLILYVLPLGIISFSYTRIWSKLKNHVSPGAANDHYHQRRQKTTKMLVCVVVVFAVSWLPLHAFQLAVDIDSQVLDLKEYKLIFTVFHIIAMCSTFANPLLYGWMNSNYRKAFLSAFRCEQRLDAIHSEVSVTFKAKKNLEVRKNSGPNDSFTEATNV

[10] = mitochondrial function rescue without frataxin homolog – Friedreich's ataxia, plus single-dose screen, dose response (AID 1465); type: functional;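 further: yeast depleted of Yfh1p frataxin homolog grown on glycerol needing respiration; WST-1 tetrazolium dye reduction as measure of cellular dehydrogenase metabolic activity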
[11] = mRNA 3' processing disruption, beta-gal signal increase – luminescence, S. cerevisiae SKY197-pL101, dose response (AID 2525); type: functional, cell-based
[12] = Luminescence Cell-Based Dose Confirmation HTS to Identify Inhibitors of Polyadenylation.; type: functional
[13] = target: T3, Neuropeptide Y receptor type 2; test: Fluorescence-based counterscreen for agonists of NPY-Y1: cell-based high-throughput dose response assay for agonists of NPY-Y2.; type: functional
[14] = test system: HEK293; test: Fluorescence-based counterscreen for potentiators or agonists of NPY-Y1: cell-based high-throughput dose response assay for inhibitors of cyclic nucleotide gated ion channel (CNGC) activity. In this assay, the parental HEK293 cell line transfected with a cyclic-nucleotide gated ion channel (CNGC)-based cAMP sensor is used to measure inhibition of isoproterenol-induced CNGC …; type: functional; conditions: Homo sapiens
[15] = target: T2, Neuropeptide Y receptor type 1; test: Fluorescence-based dose response cell-based high-throughput screening assay for agonists of NPY-Y1. [Related pubchem assays: 1697 (Screening assay (NPY-Y1 agonists).), 1359 (Screening assay (NPY-Y2 potentiators or agonists).), 1304 (Screening assay (NPY-Y1 potentiators or agonists).), 1704 (Screening assay (CNGC inhibitors).), 1791 (Summary AID.)]; type: functional
[16] = Luminescence Cell-Based Dose Retest to Confirm Inhibitors of Cancer Stem Cells. [Related pubchem assays (depositor defined):AID2717, AID2721]; type: functional; conditions: Homo sapiens
[17] = test system: INS1; test: INS-1E survival protection against cytokine death – cell-based, luminescence, retest, dose response (AID 449756); type: functional; conditions: Rattus norvegicus;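 further: cell death triggered by IL-1 beta plus TNF-alpha plus IFN-gamma mixture; protective hits raise ATP signal compared with cytokine alone wells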
[18] = test system: Vero; test: cells; type: functional; conditions: Chlorocebus sabaeus
[19] = target: Beta-galactosidase (Escherichia coli, UniProt Q8VNN2); test: Dose response counterscreen for EBI2 assay utilizing the enzyme, b-galactosidase.; type: functional
Chain of Beta-galactosidase (Q8VNN2 whole entry): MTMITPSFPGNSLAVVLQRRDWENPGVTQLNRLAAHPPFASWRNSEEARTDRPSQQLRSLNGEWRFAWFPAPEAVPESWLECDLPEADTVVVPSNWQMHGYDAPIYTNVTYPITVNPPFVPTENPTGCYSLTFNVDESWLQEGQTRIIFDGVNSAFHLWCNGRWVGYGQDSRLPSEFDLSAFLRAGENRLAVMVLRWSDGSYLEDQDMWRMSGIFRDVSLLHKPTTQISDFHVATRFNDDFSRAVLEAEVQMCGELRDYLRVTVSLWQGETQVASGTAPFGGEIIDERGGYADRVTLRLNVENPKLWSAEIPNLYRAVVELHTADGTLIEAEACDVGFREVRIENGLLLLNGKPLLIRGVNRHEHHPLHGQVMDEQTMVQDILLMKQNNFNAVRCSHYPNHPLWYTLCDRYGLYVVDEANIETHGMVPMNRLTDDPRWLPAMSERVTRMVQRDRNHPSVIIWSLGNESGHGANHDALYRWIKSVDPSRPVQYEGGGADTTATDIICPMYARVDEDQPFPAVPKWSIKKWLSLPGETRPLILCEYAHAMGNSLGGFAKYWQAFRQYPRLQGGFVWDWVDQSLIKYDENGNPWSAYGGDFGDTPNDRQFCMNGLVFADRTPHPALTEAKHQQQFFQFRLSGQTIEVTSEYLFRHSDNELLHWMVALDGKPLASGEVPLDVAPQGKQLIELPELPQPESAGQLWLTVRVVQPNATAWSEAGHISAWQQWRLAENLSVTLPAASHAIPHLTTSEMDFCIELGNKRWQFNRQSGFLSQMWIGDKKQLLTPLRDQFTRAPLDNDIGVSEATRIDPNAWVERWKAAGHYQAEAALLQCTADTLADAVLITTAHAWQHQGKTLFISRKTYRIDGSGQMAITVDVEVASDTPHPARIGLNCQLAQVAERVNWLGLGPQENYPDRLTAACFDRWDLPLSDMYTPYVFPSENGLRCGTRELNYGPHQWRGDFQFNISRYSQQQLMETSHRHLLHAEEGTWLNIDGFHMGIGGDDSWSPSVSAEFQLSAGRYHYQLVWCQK

Question: With Cc1cc(C)c2nc(-c3ccncc3)cc(C(=O)N3CCN(Cc4ccccc4Cl)CC3)c2c1 as the compound, how does the EC50 [1] read?
Answer: 3.71 µM (active)

Question: And the EC50 [2]?
Answer: 9.94 µM (active)

Question: And the EC50 [3]?
Answer: 10.3 µM (active)

Question: What about the EC50 [4] of the same compound?
Answer: 2.35 µM (active)

Question: What about the CC50 [5] of the same compound?
Answer: > 40 µM (active)

Question: And the EC50 [6]?
Answer: > 60 µM (not active)

Question: What about the EC50 [7] of the same compound?
Answer: > 150 µM (not active)

Question: What does the source list for CCOc1nc(SCCOc2ccc(Cl)cc2Cl)nc(N(C)C)n1?
Answer: IC50 [8]: 5.54 µM (active); IC50 [9]: 5.52 µM (active)

Question: With CC1(OC(=O)C2CCCC2)C(=O)C=C2C=C(c3ccsc3)N(Cc3ccco3)C=C2C1=O (centres undefined) as the compound, how does the EC50 [10] read?
Answer: > 100 µM (active)

Question: Which results are given for CC(=O)c1ccc(Sc2ccccc2)c([N+](=O)[O-])c1?
Answer: EC50 [11]: 2.88 µM (active); EC50 [12]: 11.4 µM (active)

Question: Which EC50 [13] does the source give for O=C(c1cc(-c2cccc(O)c2)on1)N1CCN(C(c2ccccc2)c2ccccc2)CC1 here?
Answer: > 35.4 µM (not active)

Question: What about the IC50 [14] of the same compound?
Answer: > 35.4 µM (not active)

Question: What about the EC50 [15] of the same compound?
Answer: > 35.4 µM (not active)

Question: What about the AC50 [16] of the same compound?
Answer: 1.58 µM (active)

Question: What about the AC50 [17] of the same compound?
Answer: 9.7 µM (active)

Question: What about the CC50 [18] of the same compound?
Answer: 15.4 µM (active)

Question: And the IC50 [19]?
Answer: 151 µM (inactive)
